Values after ≈ are worked out from the molar mass of the structure shown. Read-outs that look alike come from different tables or passages of the source.
How the values were obtained:
[1] = pKa-value using a GLpKa meter; format: physicochemical; details: 25° C.
[2] = Solubility in 67 mM phosphate buffer pH 7.4 and in hydrochloride solutions at 37° C.; format: physicochemical; details: for solubility thermodynamic: 37 °C, thermodynamic from solid, read-out: S
Procedure: The determination of the solubility of a prodrug at different pH values of interest according to the present invention is carried by adding excess solid prodrug to a container containing a buffer solution with well-defined pH. The mixture is rotated at constant temperature until an equilibrium between solid prodrug and prodrug in solution has established (that is until the prodrug concentration in the supernatant remains constant). At each measurement the pH of the supernatant is controlled and, if needed, adjusted to the desired pH. In a similar manner the solubility of a prodrug in a tissue fluid including the synovial fluid can be determined. The latter procedure comprises a simple way of testing if the solubility at the selected lower pH is indeed at least 100 times higher than the corresponding solubility in the physiological fluid it is injected into. […] For instance, a decrease in pH from pH 7.4 to 2.0 will result in a 1000-fold increase in the solubility of a base with a pKa value of 5, whereas the solubility will increase by a factor of about 9618 for a base with a pKa value of 6. These predicted alterations in pH dependent solubilities can be calculated from the expression: St=S0*(1+10^pKa-pH) where St is the total solubility at a given pH and S0 is the solubility of the neutral form of the prodrug.
A surplus of prodrug was added to either PBS pH 7.4 or H2O. 0.1 M HCl was added to the H2O to decrease pH to around 3-4. The mixtures were rotated at 37° C. and a sample was withdrawn after approximately 24 and 48 hours or later. The withdrawn sample was filtered through a 0.45 μm Millex®-HV (Millipore, Japan) low protein binding filter (the first 0.5 mL discarded) and a known volume of the sample was diluted. The pH 7.4 samples were diluted with PBS and the acidic samples with mobile phase A (section 2.5). A standard dissolved in PBS was made for the pH 7.4 samples and a standard dissolved in mobile phase A for the acidic samples. The PBS standards used for the standard curves were treated like the samples to avoid false results caused by adsorption. The standard curves were made to cover the concentration interval of the samples after dilution.
From the observed relatively stable concentration of dissolved prodrugs measured in the suspensions after 8-9 day up to 23 days, the solubilities of the prodrugs (Sprodrug) were determined. In this time interval, the rate of appearance of parent drug was determined and an apparent pseudo-zero-order rate constant (k0) was obtained. By assuming that the dissolution rates were much faster than the conversion of the prodrugs to the parent drug, pseudo first-order rate constants (khyd) for cleavage of the prodrugs were calculated according to: […]

[3] = Stability in 80% (v/v) human plasma at 37° C.; format: in vitro ADME; details: 80% plasma
Procedure: (§1) The stability of the prodrugs was determined in PBS, 80% human SF, 80% human plasma and 80% rat serum at 37° C. 10, 20 or 50 μL of prodrug solution in MeOH was added to 1.0 mL 80% rat serum, 2.5 mL 80% SF or human plasma or 10.0 mL PBS, respectively to give a final prodrug concentration corresponding to the solubility at pH 7.4 at 37° C. Samples were withdrawn at appropriate intervals depending on the rate of degradation. The samples from the biological medias were added to MeCN (1:2 (v:v)) vortexed and centrifuged (5 min, 10000 RPM) and the supernatant analyzed by HPLC. The 700 μL PBS samples were added to 100 μL PBS and mixed before analysis by HPLC. First a pilot study was performed with n=1 to find the appropriate sampling times and thereafter an experiment with n=3. The stability was determined from the decrease in the area of prodrug.

[4] = Stability in 80% (v/v) human SF at 37° C.; format: in vitro ADME; details: 80% (v/v) human SF (synovial fluid), 80% SF batch 210513, 37° C.
Procedure: as §1

[5] = Stability in 80% (v/v) rat serum at 37° C.; format: in vitro ADME; details: pH 7.4, 80% rat serum
Procedure: as §1

[6] = Stability in PBS pH 7.4 at 37° C.; format: physicochemical; details: pH 7.4, PBS pH 7.4, 37° C.
Procedure: as §1

[7] = tested on: osteoarthritis pain induced by a single injection of MIA; test: Monosodium iodoacetate (MIA) model of osteoarthritis, joint compression thresholds; format: in vivo, Sprague-Dawley rats; details: for mean joint compression thresholds compared to the vehicle group: 0.3 mg intra-articular; for reversal of osteoarthritis pain compared to vehicle treated animals: single intra-articular administration of 0.3 mg
Excerpt: Osteoarthritis is the most common form of joint disease. Nearly one third of adults in the United States suffer from osteoarthritis and it is the most common cause of disability in adults in the United States. The monosodium iodoacetate (MIA) model of osteoarthritis described here produces changes in the structure and integrity of the affected cartilage that is very similar to what is seen in human osteoarthritis. Sodium iodoacetate is a metabolic inhibitor that, when injected into the joint space, selectively kills chondrocytes, the cells that form cartilage. Over a period of 2-3 weeks, the loss of cartilage produces a state highly analogous to human osteoarthritis characterized by joint instability, loss of cartilage, and decreased bone quality around the affected joint. These physiological changes are also accompanied by pain in the affected joint.
In this study, osteoarthritis was induced by a single injection of MIA (2 mg) into the synovium of the left knee, which results in increased sensitivity to pressure. For this particular study, the test compounds were given 14 days post-MIA injection to determine if the test compound can reduce the sensitivity.
• Vehicle (0.01% Tween 80 in phosphate buffer) administered intra-articularly at a dose volume of 30 μl on day 0. • Test articles DPX-1-0008, DPX-1-0011, DPX-1-0018, DPX-1-0020, DPX-1-0023, and DPX-1-0024, administered intra-articularly at a dose of 0.3 mg on day 0. • Diclofenac, administered orally at a dose of 10 mg/kg on day 8 to the vehicle group. Methods
A total of 82 male, Sprague-Dawley rats underwent MIA injection with the goal of having 70 animals available for the pharmacology treatment due to 15% failure of developing a pain state. Fourteen days after MIA injection, animals met the inclusion criteria were assigned to one of seven groups (vehicle, test article DPX-1-0008, DPX-1-0011, DPX-1-0018, DPX-1-0020, DPX-1-0023, and DPX-1-0024) and received the assigned treatment. Joint compression thresholds were assessed prior to MIA injection, prior to dosing with control/test articles, and 1, 2, 4, and 7 days post-dosing. Diclofenac served as the positive control for the study. On day 8, animals in the vehicle group received diclofenac (10 mg/kg, PO) and joint compression were assessed prior to, 1 and 2 hours after dosing for all the animals. All animals were euthanized on day 8 following the behavioral assessment.

[8] = hydrochloride solution pH 4.35, 37° C., n = 6

SMILES	pKa [1]	S (mM) ([2]; 67 mM phosphate buffer pH 7.4, 37° C., n = 6)	solubility thermodynamic ([2]; 67 mM phosphate buffer, pH 7.4, aqueous buffer, 67 mM phosphate buffer pH 7.4, 37° C., n = 6)	S (mM) [2, 8]	S (μg/ml) [2, 8]	solubility thermodynamic ([2]; hydrochloride solution, pH 4.35, aqueous buffer, hydrochloride solution pH 4.35, 37° C., n = 6)	decrease of solubility from pH 4.35 to pH 7.4 ([2]; pH 4.35 vs pH 7.4)	half-life at 2.7 μg/ml [3]	half-life at 2.7 μg/ml [4]	half-life at 2.7 μg/ml [5]	half-life at 2.7 μg/ml ([6]; read-out: T1/2 (days))	half-life at 2.7 μg/ml ([6]; read-out: T1/2 (min))	mean joint compression thresholds compared to the vehicle group ([7]; 1 day post-dosing)	reversal of osteoarthritis pain compared to vehicle treated animals [7]	mean joint compression thresholds compared to the vehicle group ([7]; 8 days post-dosing)	mean joint compression thresholds compared to baseline values on day 8 ([7]; 10 mg/kg oral, 1 and 2 hours post-dosing)
Cc1ncn(CCOC(=O)Cc2ccccc2Nc2c(Cl)cccc2Cl)c1C [DPX-1-0023]	7.92	0.0064 ± 0.0005 mM	~2.7 µg/mL (≈ 0.00645 mM)	7.2 ± 0.1 mM	3019 µg/mL	3020 ± 62 µg/mL (≈ 7.22 mM)	1118 fold	5.1 ± 0.5 min	39.8 ± 2.8 min	6.1 ± 0.4 min	0.75 days	0.752 ± 0.114 days	significantly increased	significantly reversed		
O=C(Cc1ccccc1Nc1c(Cl)cccc1Cl)OCCCn1ccnc1 [DPX-1-0018]														significantly reversed	significantly increased	
O=C(O)Cc1ccccc1Nc1c(Cl)cccc1Cl [diclofenac]																significantly increased

Reference: patent US10266499B2, “Imidazole derivatives as prodrugs of diclofenac” (priority 2014, dated 2019)
